Laboratory results as given in patent publication US10799522B2, “Compositions and methods relating to galectin detection” (Wayne State University, priority 2015, dated 2020).

Experiment: radiation dosimetry estimates for human patients
Details: adult male

In the case of OCC1OC(SC2OC(CO)C(O)C(n3cc(-c4cccc([18F])c4)nn3)C2O)C(O)C(n2cc(-c3cccc(F)c3)nn2)C1O [[^18F]FPTDG, 3-(3-[^18F]fluorophenyltriazolyl)-3-deoxy-3′-(3-fluorophenyltriazolyl)-3′-deoxy-1-thio-β-D-digalactopyranoside], the “Effective Dose” value is reported as “Effective Dose 6.74 mSv per 370 MBq dose or 10 mCi”, the “Effective Dose Equivalent” value is reported as “Effective Dose Equivalent 6.12 mSv per 370 MBq dose or 10 mCi” and the “Estimated organ dose, Alpha” value (Total Body) is reported as 0 mSv per 370 MBq dose or 10 mCi. The “Estimated organ dose, Beta” value (Total Body) was 1.79 mSv per 370 MBq dose or 10 mCi, the “Estimated organ dose, ED Cont.” value (Total Body) was 0.00 mSv per 370 MBq dose or 10 mCi and the “Estimated organ dose, EDE Cont.” value (Total Body) was 0.00 mSv per 370 MBq dose or 10 mCi. The “Estimated organ dose, Photon” value (Total Body) was 2.67 mSv per 370 MBq dose or 10 mCi, the “Estimated organ dose, Total” value (Total Body) was 4.46 mSv per 370 MBq dose or 10 mCi and the “Estimated organ dose, Alpha” value (target organ Adrenals) was 0 mSv per 370 MBq dose or 10 mCi. For the same molecule, the “Estimated organ dose, Beta” value (target organ Adrenals) was 1.70 mSv per 370 MBq dose or 10 mCi, the “Estimated organ dose, ED Cont.” value (target organ Adrenals) was 0.03 mSv per 370 MBq dose or 10 mCi and the “Estimated organ dose, EDE Cont.” value (target organ Adrenals) was 0.00 mSv per 370 MBq dose or 10 mCi. The “Estimated organ dose, Photon” value (target organ Adrenals) was 3.33 mSv per 370 MBq dose or 10 mCi, the “Estimated organ dose, Total” value (target organ Adrenals) was 5.03 mSv per 370 MBq dose or 10 mCi and the “Estimated organ dose, Alpha” value (target organ Brain) was 0 mSv per 370 MBq dose or 10 mCi. For the same molecule, the “Estimated organ dose, Beta” value (target organ Brain) was 1.70 mSv per 370 MBq dose or 10 mCi, the “Estimated organ dose, ED Cont.” value (target organ Brain) was 0.02 mSv per 370 MBq dose or 10 mCi and the “Estimated organ dose, EDE Cont.” value (target organ Brain) was 0.00 mSv per 370 MBq dose or 10 mCi. For the same molecule, the “Estimated organ dose, Photon” value (target organ Brain) was 2.22 mSv per 370 MBq dose or 10 mCi, the “Estimated organ dose, Total” value (target organ Brain) was 3.92 mSv per 370 MBq dose or 10 mCi and the “Estimated organ dose, Alpha” value (target organ Breasts) was 0 mSv per 370 MBq dose or 10 mCi. For the same molecule, the “Estimated organ dose, Beta” value (target organ Breasts) was 1.70 mSv per 370 MBq dose or 10 mCi, the “Estimated organ dose, ED Cont.” value (target organ Breasts) was 0.18 mSv per 370 MBq dose or 10 mCi and the “Estimated organ dose, EDE Cont.” value (target organ Breasts) was 0.54 mSv per 370 MBq dose or 10 mCi. The “Estimated organ dose, Photon” value (target organ Breasts) was 1.87 mSv per 370 MBq dose or 10 mCi, the “Estimated organ dose, Total” value (target organ Breasts) was 3.57 mSv per 370 MBq dose or 10 mCi and the “Estimated organ dose, Alpha” value (target organ Gallbladder Wall) was 0 mSv per 370 MBq dose or 10 mCi. The “Estimated organ dose, Beta” value (target organ Gallbladder Wall) was 1.70 mSv per 370 MBq dose or 10 mCi, the “Estimated organ dose, ED Cont.” value (target organ Gallbladder Wall) was 0.00 mSv per 370 MBq dose or 10 mCi and the “Estimated organ dose, EDE Cont.” value (target organ Gallbladder Wall) was 0.00 mSv per 370 MBq dose or 10 mCi. For the same molecule, the “Estimated organ dose, Photon” value (target organ Gallbladder Wall) was 3.7 mSv per 370 MBq dose or 10 mCi, the “Estimated organ dose, Total” value (target organ Gallbladder Wall) was 5.40 mSv per 370 MBq dose or 10 mCi and the “Estimated organ dose, Alpha” value (target organ Heart Wall) was 0 mSv per 370 MBq dose or 10 mCi. The “Estimated organ dose, Beta” value (target organ Heart Wall) was 1.72 mSv per 370 MBq dose or 10 mCi, the “Estimated organ dose, ED Cont.” value (target organ Heart Wall) was 0.00 mSv per 370 MBq dose or 10 mCi and the “Estimated organ dose, EDE Cont.” value (target organ Heart Wall) was 0.00 mSv per 370 MBq dose or 10 mCi. The “Estimated organ dose, Photon” value (target organ Heart Wall) was 2.76 mSv per 370 MBq dose or 10 mCi, the “Estimated organ dose, Total” value (target organ Heart Wall) was 4.48 mSv per 370 MBq dose or 10 mCi and the “Estimated organ dose, Alpha” value (target organ Kidneys) was 0 mSv per 370 MBq dose or 10 mCi. The “Estimated organ dose, Beta” value (target organ Kidneys) was 1.70 mSv per 370 MBq dose or 10 mCi, the “Estimated organ dose, ED Cont.” value (target organ Kidneys) was 0.02 mSv per 370 MBq dose or 10 mCi and the “Estimated organ dose, EDE Cont.” value (target organ Kidneys) was 0.00 mSv per 370 MBq dose or 10 mCi. The “Estimated organ dose, Photon” value (target organ Kidneys) was 3.24 mSv per 370 MBq dose or 10 mCi, the “Estimated organ dose, Total” value (target organ Kidneys) was 4.94 mSv per 370 MBq dose or 10 mCi and the “Estimated organ dose, Alpha” value (target organ LLI Wall) was 0 mSv per 370 MBq dose or 10 mCi. The “Estimated organ dose, Beta” value (target organ LLI Wall) was 9.25 mSv per 370 MBq dose or 10 mCi, the “Estimated organ dose, ED Cont.” value (target organ LLI Wall) was 1.72 mSv per 370 MBq dose or 10 mCi and the “Estimated organ dose, EDE Cont.” value (target organ LLI Wall) was 0.86 mSv per 370 MBq dose or 10 mCi. The “Estimated organ dose, Photon” value (target organ LLI Wall) was 5.06 mSv per 370 MBq dose or 10 mCi, the “Estimated organ dose, Total” value (target organ LLI Wall) was 14.30 mSv per 370 MBq dose or 10 mCi and the “Estimated organ dose, Alpha” value (target organ Liver) was 0 mSv per 370 MBq dose or 10 mCi. For the same molecule, the “Estimated organ dose, Beta” value (target organ Liver) was 1.30 mSv per 370 MBq dose or 10 mCi, the “Estimated organ dose, ED Cont.” value (target organ Liver) was 0.20 mSv per 370 MBq dose or 10 mCi and the “Estimated organ dose, EDE Cont.” value (target organ Liver) was 0.00 mSv per 370 MBq dose or 10 mCi. The “Estimated organ dose, Photon” value (target organ Liver) was 2.79 mSv per 370 MBq dose or 10 mCi, the “Estimated organ dose, Total” value (target organ Liver) was 4.08 mSv per 370 MBq dose or 10 mCi and the “Estimated organ dose, Alpha” value (target organ Lungs) was 0 mSv per 370 MBq dose or 10 mCi. For the same molecule, the “Estimated organ dose, Beta” value (target organ Lungs) was 0.03 mSv per 370 MBq dose or 10 mCi, the “Estimated organ dose, ED Cont.” value (target organ Lungs) was 0.28 mSv per 370 MBq dose or 10 mCi and the “Estimated organ dose, EDE Cont.” value (target organ Lungs) was 0.28 mSv per 370 MBq dose or 10 mCi. The “Estimated organ dose, Photon” value (target organ Lungs) was 2.26 mSv per 370 MBq dose or 10 mCi, the “Estimated organ dose, Total” value (target organ Lungs) was 2.29 mSv per 370 MBq dose or 10 mCi and the “Estimated organ dose, Alpha” value (target organ Muscle) was 0 mSv per 370 MBq dose or 10 mCi. For the same molecule, the “Estimated organ dose, Beta” value (target organ Muscle) was 1.70 mSv per 370 MBq dose or 10 mCi, the “Estimated organ dose, ED Cont.” value (target organ Muscle) was 0.02 mSv per 370 MBq dose or 10 mCi and the “Estimated organ dose, EDE Cont.” value (target organ Muscle) was 0.00 mSv per 370 MBq dose or 10 mCi. For the same molecule, the “Estimated organ dose, Photon” value (target organ Muscle) was 2.68 mSv per 370 MBq dose or 10 mCi, the “Estimated organ dose, Total” value (target organ Muscle) was 4.38 mSv per 370 MBq dose or 10 mCi and the “Estimated organ dose, Alpha” value (target organ Osteogenic Cells) was 0 mSv per 370 MBq dose or 10 mCi. The “Estimated organ dose, Beta” value (target organ Osteogenic Cells) was 3.64 mSv per 370 MBq dose or 10 mCi, the “Estimated organ dose, ED Cont.” value (target organ Osteogenic Cells) was 0.07 mSv per 370 MBq dose or 10 mCi and the “Estimated organ dose, EDE Cont.” value (target organ Osteogenic Cells) was 0.21 mSv per 370 MBq dose or 10 mCi. For the same molecule, the “Estimated organ dose, Photon” value (target organ Osteogenic Cells) was 3.17 mSv per 370 MBq dose or 10 mCi, the “Estimated organ dose, Total” value (target organ Osteogenic Cells) was 6.82 mSv per 370 MBq dose or 10 mCi and the “Estimated organ dose, Alpha” value (target organ Ovaries) was 0 mSv per 370 MBq dose or 10 mCi. The “Estimated organ dose, Beta” value (target organ Ovaries) was 1.70 mSv per 370 MBq dose or 10 mCi.
